Results taken from publication PMC3792958, “Olomoucine II, but Not Purvalanol A, Is Transported by Breast Cancer Resistance Protein (ABCG2) and P-Glycoprotein (ABCB1)” (PLoS ONE, 2013).

Legend:
[1] = tested on: multidrug resistance associated protein 1 (ABCC1); set-up: method as in PMID 20699410; conditions: cited from earlier work
[2] = tested on: multidrug resistance associated protein 2 (ABCC2); set-up: method as in PMID 20699410; conditions: cited from earlier work
[3] = tested on: ABCG2; conditions: cited from earlier work
[4] = tested on: ABCB1; conditions: bovine brain microvessel endothelial cell monolayers; cited from earlier work
[5] = target: T1, ABCG2 (Homo sapiens, UniProt Q9UNQ0); assay: Cellular monolayer transport assay, MDCKII-ABCG2 cells
T1 sequence (Q9UNQ0 1-655): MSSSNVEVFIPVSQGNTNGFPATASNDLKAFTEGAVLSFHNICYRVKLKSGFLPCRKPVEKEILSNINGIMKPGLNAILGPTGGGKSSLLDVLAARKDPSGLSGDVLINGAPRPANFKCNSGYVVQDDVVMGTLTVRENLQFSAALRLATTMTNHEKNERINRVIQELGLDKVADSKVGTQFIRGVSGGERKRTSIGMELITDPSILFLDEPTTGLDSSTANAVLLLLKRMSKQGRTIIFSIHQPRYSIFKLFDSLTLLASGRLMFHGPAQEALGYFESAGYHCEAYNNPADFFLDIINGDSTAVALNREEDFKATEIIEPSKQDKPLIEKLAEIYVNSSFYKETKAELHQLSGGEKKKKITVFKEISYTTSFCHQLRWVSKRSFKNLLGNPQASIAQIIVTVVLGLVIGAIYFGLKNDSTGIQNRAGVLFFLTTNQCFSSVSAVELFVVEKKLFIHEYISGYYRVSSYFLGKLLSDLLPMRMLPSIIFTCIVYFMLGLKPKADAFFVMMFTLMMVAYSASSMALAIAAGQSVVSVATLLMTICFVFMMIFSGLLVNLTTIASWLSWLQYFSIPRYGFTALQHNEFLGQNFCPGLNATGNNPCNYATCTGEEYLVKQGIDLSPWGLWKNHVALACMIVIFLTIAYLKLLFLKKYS
Description: (§1) ABCG2- and ABCB1-transduced MDCKII sublines (MDCKII-ABCG2 and MDCKII-ABCB1), which stably express ABCG2 and ABCB1 protein, respectively, were purchased from dr. Alfred Schinkeĺs lab (The Netherlands Cancer Institute, Amsterdam, The Netherlands). These transduced sublines as well as the parental MDCKII cell line (MDCKII-par) were routinely cultured in complete Dulbecco’s modified Eagle’s medium with 10% fetal bovine serum. 100 U/ml penicillin and 100 µg/ml streptomycin were used while growing the cells on the membrane inserts. All cells were routinely cultivated in antibiotic-free medium and periodically tested for mycoplasma contamination. […] Cells from passages 15 to 25 were used in all in vitro studies. Dimethyl sulfoxide was applied as a CDKi solvent in concentrations not exceeding 0.1%.
(§2) MDCKII-ABCG2, MDCKII-ABCB1 or MDCKII-par cells were seeded at a density of 1×10^6 per insert 72 h before experiment. The medium was replaced after 24 and 48 h of cultivation. One hour before the start of the experiment, the cells were washed with prewarmed 1×phospate buffered saline on both the apical and basal sides and Opti-MEM with or without fumitremorgin C or LY335979 was added into both compartments. At time 0, the experiment was started by replacing the medium with fresh Opti-MEM with or without CDKi and fumitremorgin C or LY335979 in the appropriate chamber. Samples were taken every 2 h from the opposite chambers for the duration of the experiment (6 h). Concentration of CDKi was determined via HPLC/MS analysis. Immediately after the experiment, cellular monolayer integrity was examined using fluorescein isothiocyanate labeled dextran (MW = 40 kDa). Dextran leakage was accepted up to 1% per hour.
(§3) HPLC/MS analysis using LC 20A Prominence chromatographic system (Shimadzu, Kyoto, Japan) coupled with LCQ Max advantage mass spectrometer (Thermo Finnigan, San Jose, CA, USA) was used for the quantification of olomoucine II and purvalanol A. The separation was performed on a Hypersil GOLD C18 column (100 × 4.6 mm, particle size 3 µm) protected with an OPTI-GUARD 1 mm guard column C18. The mobile phase flow rate was 0.35 ml/min and the column temperature was maintained at 40°C. The data were processed using Xcalibur 2.0 software (Thermo Finnigan, San Jose, CA, USA).
(§4) The detector was set as follows: spray voltage of 4.5 kV, capillary temperature of 320°C, sheet and auxiliary gas flows of 30 and 12 arbitrary units, respectively. […] The collision energies were 38% and 40% for olomoucine II and IS, respectively. […] The sample stability was evaluated within 94 h.
as §4, with “5.5” for “4.5”, “340°C,” for “320°C,”, “28” for “30”, “13” for “12”, “purvalanol A” for “olomoucine II”, “hours.” for “h.”
(§5) Transport of olomoucine II by ABCG2 and ABCB1 was tested in vitro using transport assays across the polarized monolayers of MDCKII-ABCG2 and MDCKII-ABCB1 cells, respectively. In this method, the transport across the monolayer is greatly accelerated in the basolateral to apical direction, when the compound is a substrate of examined transporter. Based on our previous studies, three olomoucine II concentrations (100 nM, 1 µM and 10 µM) were tested and transport ratios (r; olomoucine II transport in basolateral to apical direction divided by transport in apical to basolateral direction) 2 h after olomoucine II addition were calculated.

[6] = tested on: ABCG2; assay: as above; conditions: human
Description: as §1, §2, §3, §4
as §4, with “5.5” for “4.5”, “340°C,” for “320°C,”, “28” for “30”, “13” for “12”, “purvalanol A” for “olomoucine II”, “hours.” for “h.”
as §5

[7] = target: ABCB1 (Homo sapiens, UniProt P08183); assay: Cellular monolayer transport assay, MDCKII-ABCB1 cells
Description: as §1, §2, §3, §4
as §4, with “5.5” for “4.5”, “340°C,” for “320°C,”, “28” for “30”, “13” for “12”, “purvalanol A” for “olomoucine II”, “hours.” for “h.”
as §5

[8] = tested on: ABCB1; assay: as above; conditions: human
Description: as §1, §2, §3, §4
as §4, with “5.5” for “4.5”, “340°C,” for “320°C,”, “28” for “30”, “13” for “12”, “purvalanol A” for “olomoucine II”, “hours.” for “h.”
as §5

[9] = Cellular monolayer transport assay, parental MDCKII-par cells; conditions: dog, MDCK
Description: as §1, §2, §3, §4
as §4, with “5.5” for “4.5”, “340°C,” for “320°C,”, “28” for “30”, “13” for “12”, “purvalanol A” for “olomoucine II”, “hours.” for “h.”
as §5

[10] = tested on: MDCKII-par cells; assay: as above; conditions: olomoucine II 100 nM and 1 µM, 2 h, 1 µM LY335979 (endogenous canine Abcb1 inhibitor)
Description: as §1, §2, §3, §4
as §4, with “5.5” for “4.5”, “340°C,” for “320°C,”, “28” for “30”, “13” for “12”, “purvalanol A” for “olomoucine II”, “hours.” for “h.”
as §5

[11] = tested on: MDCKII cells; assay: Generation of sulfated conjugate in MDCKII cells (HPLC/MS); assay type: in vitro ADME, canine; conditions: MDCKII-ABCG2, MDCKII-ABCB1 and MDCKII-par; MS analysis
Description: Concentration of CDKi was determined via HPLC/MS analysis. […] Dextran leakage was accepted up to 1% per hour.
In olomoucine II transport experiments, we recorded time-dependent generation of an unknown peak in the fifth minute of HPLC analysis in all three cell lines tested (MDCKII-ABCG2, MDCKII-ABCB1 and MDCKII-par). Based on the MS analysis, the compound was identified as a sulfated conjugate of olomoucine II (Fig. 2). […] On the other hand, the amount of sulfated metabolite increased with time and caused remarkable distortion of the results of parent compound. Therefore, when analyzing the data of unconjugated olomoucine II, the time interval was shortened to 2 hours in order to reduce the misrepresenting effect of sulfated olomoucine II. Considering ionic nature of sulfated olomoucine II, it is obvious that this compound cannot escape from the cells via passive diffusion but must utilize special transport system(s). Relative quantification of olomoucine II sulfate allowed us to describe its pharmacokinetic behavior in all MDCKII cell sublines.
Figure 2 Mass spectra of an unknown peak eluted in the fifth minute of HPLC analysis of olomoucine II transport. (A) spectrum in positive mode, (B) MS^2 in positive mode, (C) negative mode, (D) MS^2 in negative mode. […]

[12] = tested on: placental ABCB1/ABCG2
[13] = tested on: ABCG2; conditions: cited from earlier work; for inhibition of ABCG2: in vitro and in situ levels
[14] = tested on: ABCG2-expressing cell lines; conditions: combination method of Chou-Talalay; cited from earlier work
[15] = tested on: ABCG2; set-up: method as in PMID 18841444; conditions: in vitro hematoporphyrin transport, Sf9 membrane vesicles; cited from earlier work

Chain of ABCB1 (Homo sapiens, UniProt P08183) (P08183 whole entry): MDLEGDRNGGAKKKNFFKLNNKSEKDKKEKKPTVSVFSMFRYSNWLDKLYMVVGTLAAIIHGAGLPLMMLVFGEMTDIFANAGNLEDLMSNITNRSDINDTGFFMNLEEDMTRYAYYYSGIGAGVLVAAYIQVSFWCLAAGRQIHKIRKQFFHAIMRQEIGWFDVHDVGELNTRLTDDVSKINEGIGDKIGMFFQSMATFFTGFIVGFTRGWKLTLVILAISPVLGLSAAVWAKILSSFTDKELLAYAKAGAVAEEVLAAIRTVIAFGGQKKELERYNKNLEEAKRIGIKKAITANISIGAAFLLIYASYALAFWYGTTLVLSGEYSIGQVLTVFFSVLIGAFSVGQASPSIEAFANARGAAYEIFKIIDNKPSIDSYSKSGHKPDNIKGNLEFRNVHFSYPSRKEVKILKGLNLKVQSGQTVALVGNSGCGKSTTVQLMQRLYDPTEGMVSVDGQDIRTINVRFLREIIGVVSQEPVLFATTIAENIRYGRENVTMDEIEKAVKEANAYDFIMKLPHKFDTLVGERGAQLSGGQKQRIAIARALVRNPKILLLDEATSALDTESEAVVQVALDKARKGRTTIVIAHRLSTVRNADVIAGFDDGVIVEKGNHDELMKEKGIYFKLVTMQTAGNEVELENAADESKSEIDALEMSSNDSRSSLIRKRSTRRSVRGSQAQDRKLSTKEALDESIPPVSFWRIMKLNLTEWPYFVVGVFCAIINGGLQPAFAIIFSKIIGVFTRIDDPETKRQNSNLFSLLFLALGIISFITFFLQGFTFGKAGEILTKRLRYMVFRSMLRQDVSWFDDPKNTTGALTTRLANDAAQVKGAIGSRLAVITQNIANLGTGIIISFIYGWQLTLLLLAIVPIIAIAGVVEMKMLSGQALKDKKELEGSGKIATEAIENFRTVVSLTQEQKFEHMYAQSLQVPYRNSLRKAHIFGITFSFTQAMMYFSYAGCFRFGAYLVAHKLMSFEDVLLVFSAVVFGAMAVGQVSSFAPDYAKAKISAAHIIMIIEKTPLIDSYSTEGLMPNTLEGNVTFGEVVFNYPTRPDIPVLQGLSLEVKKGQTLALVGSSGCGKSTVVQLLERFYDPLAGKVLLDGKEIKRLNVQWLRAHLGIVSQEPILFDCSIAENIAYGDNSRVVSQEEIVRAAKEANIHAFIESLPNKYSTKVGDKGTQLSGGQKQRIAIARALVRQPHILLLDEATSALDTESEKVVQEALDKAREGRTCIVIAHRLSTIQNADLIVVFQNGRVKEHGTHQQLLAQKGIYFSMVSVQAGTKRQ

In the case of `CC[C@H](CO)Nc1nc(NCc2ccccc2)c2ncn(C(C)C)c2n1` [roscovitine], the “transport by ABCC1” value [1] is given as “not transported”, the “transport by ABCC2” value [2] is given as “not transported” and the “transport by ABCG2” value [3] is given as “not transported”. The “inhibition of ABCB1” value [4] was “significant inhibition of ABCB1”.

With `CC[C@H](CO)Nc1nc(NCc2ccccc2O)c2ncn(C(C)C)c2n1` [olomoucine II] the efflux ratio at 2 h, 100 nM ([5]; human) was 2.27, the efflux ratio at 2 h, 10 µM ([5]; human) was 1.29 and the ABCG2 substrate status ([5]; in vitro, MDCKII-ABCG2 monolayers) was “dual substrate of ABCG2 and ABCB1”. For the same compound, the “transport ratio r (basolateral to apical divided by apical to basolateral)” value ([5]; olomoucine II 1 µM, 2 h, without inhibitor) was 2.31, the efflux ratio at 2 h, 100 nM ([6]; with fumitremorgin C 5 µM) was 1.32 and the efflux ratio at 2 h, 1 µM ([6]; with fumitremorgin C 5 µM) was 1.21. For the same compound, the “asymmetry in transport in MDCKII-ABCB1 cells in comparison with ABCG2 transduced cells” value ([7]; 100 nM and 1 µM, 2 h) was “approximately 3 fold”, the efflux ratio at 2 h, 100 nM ([7]; human, MDCK-MDR1) was 6.45 and the efflux ratio at 2 h, 1 µM ([7]; human, MDCK-MDR1) was 6.83. The efflux ratio at 2 h, 10 µM ([7]; human, MDCK-MDR1) was 2.51, the ABCB1 substrate status ([7]; in vitro, MDCKII-ABCB1 monolayers) was “substrate of ABCB1” and the efflux ratio at 2 h, 100 nM ([8]; MDCK-MDR1, with LY335979 1 µM) was 1.48. It also gave an efflux ratio at 2 h, 1 µM ([8]; MDCK-MDR1, with LY335979 1 µM) of 1.83, an efflux ratio at 2 h, 100 nM [9] of 1.45 and an efflux ratio at 2 h, 1 µM [9] of 1.39. The efflux ratio at 2 h, 10 µM [9] was 1.64, the “change in r values after adding LY335979” value [10] was “did not observe statistically significant changes” and the “sulfatation in MDCKII cells” value [11] was “time-dependent generation of a metabolite”. For the same compound, the “transport by placental ABCB1/ABCG2 in perfused rat placenta” value [12] was “actively pumped from fetus to mother”, the “ABCG2 inhibitory potency compared with fumitremorgin C” value [13] was “comparable or even higher potency than fumitremorgin C” and the “inhibition of ABCG2” value [13] was “inhibition of ABCG2”. The “potentiation of the antiproliferative effect of mitoxantrone” value [14] was “synergistically potentiate”.

For `COc1cc2ncnc(Nc3cccc(O)c3)c2cc1OC` [WHI-P180], the ABCG2 inhibition [15] is listed as “ABCG2 inhibition”.

In the case of `CC(C)[C@H](CO)Nc1nc(Nc2cccc(Cl)c2)c2ncn(C(C)C)c2n1` [purvalanol A], the ABCG2 substrate status ([5]; human) is reported as “not an ABCG2 substrate”, the efflux ratio at 6 h, 1 µM ([5]; human) is reported as 1.28 and the efflux ratio at 6 h, 10 µM ([5]; human) is reported as 1.23. The efflux ratio at 6 h, 1 µM [6] was 1.33, the efflux ratio at 6 h, 10 µM [6] was 1.26 and the ABCB1 substrate status ([7]; human, MDCK-MDR1) was “not an ABCB1 substrate”. For the same compound, the efflux ratio at 6 h, 1 µM ([7]; human, MDCK-MDR1) was 1.36, the efflux ratio at 6 h, 10 µM ([7]; human, MDCK-MDR1) was 1.26 and the efflux ratio at 6 h, 1 µM ([8]; MDCK-MDR1) was 1.2. For the same compound, the efflux ratio at 6 h, 10 µM ([8]; MDCK-MDR1) was 1.18, the efflux ratio at 6 h, 1 µM [9] was 1.14 and the efflux ratio at 6 h, 10 µM [9] was 1.05. For the same compound, the “sulfatation in MDCKII cells” value [11] was “not subjected to sulfatation”, the “transport by placental ABCB1/ABCG2 in perfused rat placenta” value [12] was “showed no interactions with these transporters” and the “ABCG2 inhibitory potency compared with fumitremorgin C” value [13] was “comparable or even higher potency than fumitremorgin C”. For the same compound, the “inhibition of ABCG2” value [13] was “inhibition of ABCG2”, the “potentiation of the antiproliferative effect of mitoxantrone” value [14] was “synergistically potentiate” and the ABCG2 inhibition [15] was “ABCG2 inhibition”.
